Assay results as given in patent publication US10792280B2, “Pharmaceutical composition comprising amodiaquine and anti-diabetes drug as effective ingredient for prevention or treatment of diabetes” (NOVMETAPHARMA CO., LTD., priority 2016, dated 2020).

How the values were obtained:
[1] = system: high fat-induced obesity mice; assay: Intraperitoneal insulin tolerance test (IPITT) in high fat-induced obesity mice; format: in vivo, mouse; conditions: for time of lowest blood glucose level after insulin (IPITT): administration after long-term HFD-induced obesity, FIG. 7C; for blood glucose concentration after 2 hours vs fasting blood glucose (IPITT): HFD with simultaneous administration, 0.5 U/kg insulin i.p., FIG. 7B
Excerpt: For measurement of the blood glucose concentration, an intraperitoneal insulin tolerance test (IPITT) was used.

[2] = molecular target: T1, PPAR-γ (Homo sapiens, UniProt P37231); assay: PPAR-γ activation, GAL4-PPAR-γ-LBD luciferase reporter in BE(2)C cells; format: cell-based; conditions: 20 h treatment, up to 50 μM, FIGS. 1A, 1B
T1 construct: expressed in transfected cells; host or cells: BE(2)C cells
T1 sequence (P37231 238-503 limits assumed): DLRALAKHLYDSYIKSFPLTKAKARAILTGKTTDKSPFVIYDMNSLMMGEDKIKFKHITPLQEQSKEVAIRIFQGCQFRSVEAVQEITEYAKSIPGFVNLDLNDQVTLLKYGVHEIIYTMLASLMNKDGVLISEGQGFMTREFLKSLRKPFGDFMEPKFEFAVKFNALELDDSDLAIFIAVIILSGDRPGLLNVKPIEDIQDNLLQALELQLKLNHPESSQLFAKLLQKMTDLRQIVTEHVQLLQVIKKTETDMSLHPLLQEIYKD
Method: (§1) To examine whether amodiaquine acts as a ligand of […] or PPAR-α, three types of vectors were used.
(§2) The activation of luciferase expression was measured after BE(2)C cells were transformed with a GAL4-PPAR-γ-LBD plasmid or a GAL4-PPAR-α-LBD plasmid, a GAL4-luciferase vector, and a β-galactosidase vector for 6 hours, treated with amodiaquine for 20 hours, and then grown in a 5% CO2 incubator.

[3] = molecular target: T2, PPAR-α (Homo sapiens, UniProt Q07869); assay: PPAR-α activation, GAL4-PPAR-α-LBD luciferase reporter in BE(2)C cells; format: cell-based; conditions: 20 h treatment, up to 50 μM, FIGS. 1C, 1D
T2 construct: expressed in transfected cells; host or cells: BE(2)C cells
T2 sequence (Q07869 239-466 limits assumed): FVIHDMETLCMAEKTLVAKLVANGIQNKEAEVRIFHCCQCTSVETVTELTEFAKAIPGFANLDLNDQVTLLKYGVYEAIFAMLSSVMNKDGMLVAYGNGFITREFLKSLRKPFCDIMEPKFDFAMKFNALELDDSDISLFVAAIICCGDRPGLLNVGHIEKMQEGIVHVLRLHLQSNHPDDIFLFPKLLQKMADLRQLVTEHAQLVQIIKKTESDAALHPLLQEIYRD
Method: as §1, §2

[4] = system: C2C12 myotube cells; assay: Glucose uptake ([3H]2-DOG) in C2C12 myotube cells; format: cell-based, mouse; conditions: 10 μM or 30 μM, 24 h; compared with 50 μM rosiglitazone; FIG. 2
Method: The phosphorylation of insulin receptors occurs due to signal transduction by insulin in muscle, adipose, liver cells, and the like, and accordingly, when various proteins located downstream are phosphorylated, glucose uptake increases, resulting in reduced blood glucose. Thus, a glucose uptake evaluation experiment was carried out to identify whether amodiaquine is effective for diabetes. C2C12 myoblasts, which are muscle cells, were cultured in DMEM containing 10% […]. When the cell density reached about 80% to about 90%, the medium was replaced with fresh 2% horse serum-containing DMEM, and cell differentiation of the C2C12 myoblasts into myotubes was induced to completely differentiate the cells, and then an experiment was carried out. […] Washing was repeated three times every twenty minutes. Subsequently, 1 ml of KRP buffer was injected, a solution (0.2 mM, 0.2 μCi) prepared by dissolving unlabeled 2-DOG and [^3H]2-DOG (Amersham Pharmacia) in KRP buffer was added to the resulting cells at 37° C. to allow treatment for exactly 10 minutes.

[5] = system: KKAy mice; assay: Fasting blood glucose in KKAy mice (amodiaquine); format: in vivo, mouse; conditions: 18 mg/kg oral daily for 6 weeks, control 132.4 mg/dl
Method: (§3) 5-week-old KKAy purchased from Clea Japan was preliminarily raised for one week and then divided into two groups (5 individuals per group). The first group was administered PBS and set as a negative control, and the second group was orally administered amodiaquine at a concentration of 18 mg/kg daily for 6 weeks. […] For measurement of the blood glucose concentration, an intraperitoneal glucose tolerance test (IPGTT) was used.

[6] = system: KKAy mice; assay: Intraperitoneal glucose tolerance test (IPGTT) in KKAy mice; format: in vivo, mouse; conditions: 18 mg/kg oral daily for 6 weeks, 2 g/kg glucose i.p., control 293.2 mg/dl
Method: as §3

[7] = system: KKAy mice; assay: Glycated hemoglobin (HbA1C) in KKAy mice (amodiaquine); format: in vivo, mouse; conditions: 18 mg/kg oral daily for 6 weeks, FIG. 4
Method: As in Example 3, the first group of experimental animals was administered PBS and set as a control, and the second group was orally administered amodiaquine at a concentration of 18 mg/kg using a 1 ml syringe daily for 6 weeks.

[8] = system: high fat-induced obesity mice; assay: Body weight of high fat-induced obesity mice; format: in vivo, mouse; conditions: amodiaquine 20 mg/kg
Method: To measure a decrease in body weight of mice by amodiaquine, 7-week-old male C57BL/6 mice (Charles River Laboratories, Tokyo, Japan) were purchased and raised under certain conditions (temperature: 22±2° C., relative humidity: 55±10%, and light/dark cycle: 12 hours). The mice were grouped into 7 individuals per group, freely fed water and diets in a cage, and then acclimated for 1 week before an experiment.
An average body weight was calculated by dividing the sum of weights of 7 mice per group by the number of mice.

[9] = system: high fat-induced obesity mice; assay: Heat production, 4° C. cold test in high fat-induced obesity mice; format: in vivo, mouse; conditions: HFD 14 weeks, up to 6 hours at 4° C.; FIG. 6
Method: To measure the heat production capability of mice fed a high fat diet for 14 weeks among the experimental animals designed in Example 5, a 4° C. cold test was performed (Spiegelman B. M. et al., Cell 92: 829-839, 1998). Hereinafter, the measurement method will be described in detail. A body temperature of mice in the high fat-induced obesity mouse group was measured before being exposed to 4° C., and recorded as an experiment start measurement temperature, and then the mice were exposed in a 4° C. room for up to 6 hours, followed by measurement of body temperature every hour. The body temperature was measured using a rectal thermometer for a mouse (Testo 925, Germany). A heat production measurement value indicated a temperature measured every hour.

[10] = system: high fat-induced obesity mice; assay: Oral glucose tolerance test (OGTT) in high fat-induced obesity mice; format: in vivo, mouse; conditions: HFD mice, 2 g/kg glucose oral; HFD control 180.5 mg/dl; FIG. 7A
Method: After fasting for 16 hours, 2 g/kg of glucose was orally administered to each of the control and experimental group animals, and a blood glucose concentration was measured every 30 minutes for 2 hours. For measurement of the blood glucose concentration, an oral glucose tolerance test (OGTT) was used.

[11] = system: high fat-induced obesity mice; assay: Fatty liver histology (hematoxylin & eosin) in high fat-induced obesity mice; format: in vivo, mouse; conditions: HFD mice, 14 weeks and 22 weeks; FIGS. 8A and 8B
Excerpt: Among the experimental animals designed in Example 5, mice in the high fat-induced obesity mouse group fed a high fat diet for 14 weeks with drug administration and high fat-induced obesity mice fed a high fat diet for 7 weeks with drug administration after obesity was induced by a high fat diet for 15 weeks were sacrificed by cervical spine dislocation, fixed on a dissection stand, and subjected to abdominal dissection with a scalpel to extract the liver. The extracted liver tissue was fixed in a 10% formalin solution to prevent contractile deformation. After 24 hours, the fixed tissue was washed with running water, and then general tissue dehydration, clearing, and penetration were performed thereon using an automatic tissue processor (6460B, Sakura, Japan) for 14 hours, and manufacture of paraffin blocks and cooling were performed using an automated embedding device (Tissue-Tex, Japan). The manufactured paraffin blocks were continuously sliced to a thickness of 4 m to 5 m in a vertical direction of the tissue using a rotary microtome 2040 (Japan), and attached to slides after processing using a floating hot water tank and a slide warming table. […]

[12] = system: ACOX, CPT-1, and mCAD genes; assay: Expression of PPAR-α target genes in liver, muscle and adipose tissues (real-time PCR); format: in vivo, mouse; conditions: muscle, adipose tissues, HFD 14 weeks, FIGS. 9A-9C
Excerpt: Among the experimental animals designed in Example 5, mice of the high fat-induced obesity mouse groups fed a high fat diet for 14 weeks were sacrificed by cervical spine dislocation, fixed on a dissection stand, and then subjected to dissection with a scalpel to extract liver, muscle, and adipose tissues, and primer base sequences of (β-actin, ACOX, CPT-1, and mCAD are as follows:
After each tissue was disrupted using a grinding instrument, RNA was extracted using TRIzol, and cDNA was synthesized using reverse transcription polymerase chain reaction (RT PCR). […] The ACOX, CPT-1, and mCAD genes were calibrated with β-actin, thereby obtaining resultant values.

Row | Compound | time of lowest blood glucose level after insulin (IPITT) [1] [min] | PPAR-γ activity (luciferase expression) [2] | blood glucose concentration after 2 hours vs fasting blood glucose (IPITT) [1] | PPAR-α activity (luciferase expression) [3] | glucose uptake [4] | fasting blood glucose concentration [5] [mg/dL] | blood glucose concentration 2 hours after glucose loading (IPGTT) [6] [mg/dL] | glycated hemoglobin production as compared to control mice [7] | body weight vs high fat-induced obesity mice ([8]; HFD with substance administration for 14 weeks, FIG. 5A) | body weight vs high fat-induced obesity mice ([8]; substance administration for 7 weeks after obesity induced by HFD for 15 weeks, rosiglitazone 50 mg/kg, FIG. 5C) | body temperature on exposure to 4° C. (heat production) [9] | blood glucose concentration 2 hours after glucose loading (OGTT) [10] [mg/dL] | liver appearance (fat accumulation, H&E) [11] | increase in expression amounts of the ACOX, CPT-1, and mCAD genes as compared to the control [12] [fold]
1 | CN(CCOc1ccc(CC2SC(=O)NC2=O)cc1)c1ccccn1 (centres unmarked) [rosiglitazone] | 60 | – | – | – | – | – | – | – | – | – | – | – | – | –
2 | Cc1cccc(Nc2cc(Cl)nc(SCC(=O)O)n2)c1C [WY-14,643] | – | did not exhibit PPAR-γ activity | maintained at a lower level than the fasting blood glucose concentration | – | – | – | – | – | – | – | – | – | – | –
3 | CCN(CC)Cc1cc(Nc2ccnc3cc(Cl)ccc23)ccc1O [amodiaquine] | 30 | higher PPAR-γ activity in a concentration-dependent manner than that of the positive control treated with rosiglitazone | maintained at a lower level than the fasting blood glucose concentration | high PPAR-α activity in a concentration-dependent manner | further increased as compared to that in the group treated with rosiglitazone | 100.2 | 207 | approximately 69% | significantly lower than that of the high fat-induced obesity mice | significant decrease in body weight | smaller decrease in body temperature than that of the high fat-induced obesity mice | 139.1 | almost the same appearance as that of normal mice | ≥ 215
